Assay results: patent US5821046A, “RNA oligonucleotides that bind HIV tat protein” (RiboTargets Holdings PLC, priority 1990, dated 1998)
Positions count from the first letter of the chain named.

Columns and labels:
[1] = system: HIV-1 tat protein; assay: competition filter binding assay, mutant TAR transcripts against labelled HIV-1 TAR RNA (FIG. 7, Table 1); conditions: 20 nM TAR RNA, 40 nM tat protein; for IC50: read-out: D1/2 (concentration of competitor RNA that reduces binding of HIV-1 tat to HIV-1 TAR RNA to 50%)
Experimental: Binding reactions (500 ul) were set up on ice and contained 80 pM ^32 P-labeled TAR RNA (17,600 dpm, 200 uCi/n mol) and unlabeled TAR RNA to give a final concentration of 20 nM, 0.5 ug calf thymus DNA, 0.2 ug yeast tRNA, 40 units RNAsin (Promega), 50 mM Tris HCl and 20 mM KCl. After addition of competitor RNA, binding was initiated by addition of HIV-1 tat protein to a final concentration of 400 ng/ml (40 nM). The binding reaction mixtures were then filtered under reduced pressure through pre-washed nitrocellulose filters (Millipore 0.45 uM pore size) and filters were dried and counted by liquid scintillation counting.
The fraction of^32 P-labeled TAR RNA bound was plotted against the final concentration of competitor RNA. In these experiments reactions included 20 nM TAR and 40 nM tat protein and increasing amounts of unlabeled competitor RNA from 40 nm to 6 uM. […] In theory, 40 nM tat will bind 50% of the input TAR RNA (D1/2) when the total TAR RNA concentration is 56 nM.
For competition experiments, binding reactions (500 ul) were set up on ice and contained 80 pM ^32 P-labeled TAR RNA (17,600 dpm, 200 uCi/n mol) and unlabeled TAR RNA to give a final concentration of 20 nM, 0.5 ug calf thymus DNA, 0.2 ug yeast TRNA, 40 units RNAsin (Promega), 50 mM Tris-HCl pH 7.9 and 20 mM KCl. After addition of 0 to 6 uM competitor RNA, binding was initiated by addition of HIV- 1 tat protein to a final concentration of 400 ng/mi (40 nM). The binding reaction mixtures were then filtered under reduced pressure through pre-washed nitrocellulose filters (Millipore 0.45 u pore size) and filters were dried and counted by liquid scintillation counting.
KRel is the ratio of the D1/2 values for HIV-1 TAR and competitor RNA.

[2] = system: HIV-1 tat protein; format: binding; conditions: 32P-labeled RNA transcript, 0 to 600 ng tat
Experimental: i) Gel retardation assays (FIG. 6) Method RNA transcripts were prepared by transcription with either T3 or T7 RNA polymerases of TAR regions residues +1 to +57, cloned between the HindIII and EcoRI sites of the Bluescribe M13+expression vector (Stratagene). RNA transcripts corresponding to HIV-1 TAR [SEQ ID NO: 1], SSA [SEQ ID NO: 3], SAA and SAS [SEQ ID NO: 5] were synthesized from clones linearized with EcoRI and transcribed with T3 RNA polymerase. RNA transcripts corresponding to the antisense HIV-1 TAR […], AAS , ASS [SEQ ID NO: 4], and ASA (not shown) sequences were prepared from the same plasmids linearized with HindIII and transcribed using T7 RNA polymerase. All other RNA molecules were synthesized using T3 RNA polymerase following EcoRI cleavage of the plasmid vector. The RNA products each carry 13 nucleotides of vector sequence at their 5' end and four nucleotides at their 3' ends. […] Transcription mixtures contained 1 ug linearized plasmid, 40 mM Tris-HCl pH 8.0, 10 mM MgCl 2, 2 mM Spermidine-HCl, 50 mM NaCl, 100 uM each ribonucleotide triphosphate, 40 uCi (alpha-^32 P) UTP (410 Ci/m mol) and 10 units of RNA polymerase in a final volume of 30 ul and were incubated at 37° C. for 30 minutes. After phenol extraction and precipitation from ethanol the RNA was purified from a 9% polyacrylamide denaturing gel. The specific activity of the RNA product was determined and appropriate amounts were used in binding assays. Binding reaction mixtures (1 5ul) contained 1 ng of uniformly labeled RNA probe, 0.5 ug calf thymus DNA, 0.2 ug yeast TRNA, 40 units RNAsin (Promega), 50 mM Tris-HCl and 20 mM KCl and 0 to 600 ng tat protein, prepared from E. coli beta-galactosidase-tat fusion proteins, as described previously (6). After incubation at either 30° C. or 4° C. for 10-20 minutes, the reaction mixtures were applied to a 6% non-denaturing polyacrylamide gel (Acrylamide: Bis, 40:0.5) in 3.3 mM sodium acetate, 6.7 mM Tris (adjusted to pH 7.9 with HCl). The gel buffer was recirculated during electrophoresis at 35 mA for approximately 2 hours at room temperature. Gels were dried and exposed to X-ray film at -80° C. using intensifying screens.

[3] = system: HIV-1 tat protein; assay: direct filter binding assay of tat to TAR RNA (saturation binding, Scatchard analysis); conditions: direct filter binding; HIV-1 TAR from saturation binding/Scatchard plot, mutants estimated from half-maximal binding; read-out: Kd (dissociation constant of tat binding)
Experimental: The results shown graphically in FIG. 4 are from experiments in which binding reactions (500 ul) contained 40 nMolar^32 P uniformly radiolabelled TAR RNA at a specific activity of 100,000 Ci/mole; 0.5 ug calf thymus DNA; 0.2 ug yeast TRNA; 40 units RNAsin (Promega); 50mm Tris-HCl pH 7.9 and 20 mM KCl. Reaction mixtures were set up on ice and increasing amounts of HIV-1 tat protein were added and the reaction mixtures were filtered through prewashed nitrocellulose filters (Millipore 0.45 uM pore size). The filters were dried and counted by liquid scintillation counting. The fraction of radiolabeled RNA bound was plotted against HIV-1 tat concentration.
Binding was measured by a filter-binding assay as described below under "Method", using monomeric tat protein prepared by CNBr cleavage of a human growth hormone-tat fusion protein expressed in E. coli. Reactions for saturation binding contained labeled TAR RNA [SEQ ID NO: 1] or antisense TAR RNA [SEQ ID NO: 6] at 10 nm and between 0 to 300 nM purified tat protein. Antisense TAR RNA was used as a control, since antisense TAR is unable to form stable complexes with tat in gel-retardation assays (Dingwall et al., 1989).
The stoichiometry of the tat/TAR interaction was determined by varying the TAR RNA concentrations over a wide range, while keeping the tat protein concentration constant near the Kd. For this Scatchard analysis, the tat protein concentration was held constant at 40 nM and the RNA concentration was varied between 7nM and 320 nM. The total amount of labeled RNA was kept constant in the binding reactions, but the specific activity of the RNA was varied. […]
Tat protein was prepared either from beta-galactosidase-tat fusion proteins (6) or from human growth-hormone-tat fusion proteins (85) using an improved method. In brief, inclusion body pellets containing the fusion protein were solubilized in 7M GdHCl, 50 mM Tris-HCl pH8.0, 2 mM EDTA, 2mM DTT and the fusion protein was purified to near homogeneity by ion-exchange chromatography on Q-Sepharose and S-Sepharose (Pharmacia) in buffers containing […], 50 mM Tris-HCl pH8.0, 2mM EDTA, 2mM DTT. The cysteine residues were protected by disulphide-exchange with 20 mM 2-hydroxyethyldisulphide (86), and the protein was cleaved by cyanogen bromide (6). The basic tat protein was then separated from the acidic human growth hormone peptides by ion-exchange chromatography on Q-Sepharose and S-Sepharose in 6M Urea. The protecting groups were then removed from the protein by addition of 10 mM DTT and the protein refolded by stepwise dialysis against 6 m Urea, 5M Urea,3M Urea, 1M Urea and 0M Urea in a buffer containing 50 mM Tris-HCl pH8.0, 100 uM DTT, 10 uM ZnCl2 Tat protein refolded in this manner elutes as a monomer from Superose 12 columns (Pharmacia) and migrates as a single band on polyacrylamide gels. Protein prepared by both methods behaved comparably in binding assays.
A wide variety of parameters affecting the binding of tat protein to TAR RNA were studied and binding conditions were optimized. Binding of tat to TAR has a distinct pH optimum at pH 8.0, but good binding is observed between pH 7.5 and pH 8.5. Tat/TAR complexes are very sensitive to ionic strength. […] Addition of Zn^+2, Cd^+2, Ca^+2, Mg,^+2, Fe^+2 or Fe^+3 ions to the reaction mixtures […]. However, the binding reaction is sensitive to EDTA at greater than 0.1 mM EDTA. Complex formation is also somewhat temperature sensitive. Optimal binding is observed at 0°C. Between 15° C. and 30° C. there is a 30% reduction in complex formation. […]

[4] = system: tat-dependent promoter activity of viral LTR carrying the TAR sequence; assay: trans-activation CAT assay, HeLa cells cotransfected with LTR-CAT test plasmid and tat expression plasmid; format: cell-based; conditions: HeLa cells cotransfected with tat plasmid
Source text: If tat binding to TAR is necessary for trans-activation, then viral LTRs carrying TAR sequences with low affinities for tat should always have reduced tat-dependent promoter activity in vivo. Site-directed mutagenesis experiments on TAR have shown that trans-activation requires sequences in both the U-rich bulge (10, 11) and the loop sequence (12, 27, 28). These observations have now been extended, using TAR mutations with known affinities for tat in transfection experiments, the results of which are shown in FIG. 8. The experiments used either HeLa cells (FIG. 8a-d) or a constitutive producer of tat, HeLa/C63/tat cells (FIG. 8e-f).
The TAR sequences depicted in FIG. 3 [SEQ ID NO: 1-11] were introduced into a test plasmid, pD5-3-3, which carries a LTR and approximately 300 bases of 5' flanking sequences derived from the infectious proviral clone NL4 (29). The bacterial chloramphenicol acetyltransferase (CAT) gene and SV40 intron and terminator sequence from pSV2-CAT (30) was inserted downstream of TAR by cloning into the HindIII site at +77. Trans-activation was measured either by cotransfection of HeLa cells with the test plasmids and the tat expression plasmid pC63-4-1 (6) (panels a-d in […]), or by transfection of the test plasmids alone into HeLa/C63/tat (clone 9) cells (panels e-h). […]

[5] = target: T1, HIV-1 Tat (Human immunodeficiency virus 1, UniProt P04608 P04608:1-86); assay: competition; D1/2; unmodified 18+15 duplex 65 nM; conditions: duplex with bulge
[6] = target: T1, HIV-1 Tat; assay: competition; D1/2; unmodified 29-mer 60 nM; 29-mer probe; conditions: hairpin with U-rich bulge
[7] = target: T1, HIV-1 Tat; assay: filter; Scatchard 11.8 nM; 50 mM Tris-HCl, 20 mM KCl, on ice, calf thymus DNA and yeast tRNA present; conditions: label: 32P; stem-loop with 3-nt U-rich bulge
[8] = target: T1, HIV-1 Tat; assay: competition; D1/2; wild type 90 nM
[9] = target: T1, HIV-1 Tat; assay: filter; UCU bulge indistinguishable from UUU; conditions: stem-loop with bulge

Q: What does the source list for “HIV-2 TAR: first stem-loop structure of HIV-2 ROD TAR RNA, bulge of two uridine residues (CUGCGGAGAGGCUGGCAGAUUGAGCCCUGGGAGGUUCUCUCCAGCACUAGCAG; RNA, backbone not given here) [reference compound]”?
A: KRel (ratio of D1/2 values for HIV-1 TAR and competitor RNA) [1]: 0.40; IC50 [1]: 160 nM; complex formation with tat in gel retardation assay [2]: discrete complex formation; Kd [3]: 30 nM

Q: How did the “complex formation with tat in gel retardation assay” value [2] turn out when “Antisense: anti-sense sequence to HIV-1 BRU TAR (antisense GGGUUCCCUAGUUAGCCAGAGAGCUCCCAGGCUCAAAUCUGGUCUAACCAGAGAGACCC; chemistry not given here) [reference compound]” was run?
A: Its value is “No complexes were formed”.

Q: What about the Kd [3] of the same molecule?
A: The Kd was greater than 140 nM.

Q: How did the “KRel (ratio of D1/2 values for HIV-1 TAR and competitor RNA)” value [1] turn out when “G28 to C28 ; C37 to G37: pair of TAR point mutations expected to have a normal TAR stem/loop structure (GGGUCUCUCUGGUUAGACCAGAUUUGACCCUGGGAGGUCUCUGGCUAACUAGGGAACCC; chemistry not given here)” was run?
A: The value was 0.84.

Q: What about the IC50 [1] of the same molecule?
A: Its IC50 is 76 nM.

Q: What about the “trans-activation phenotype” value [4] of the same molecule?
A: Its value is “restored to wild-type levels”.

Q: And the Kd [3]?
A: The Kd was 24 nM.

B1: 18+15 duplex 4-thioT-24 (dsRNA)
RNA 1: AGCCAGAUTUGAGCAGCU
RNA 2: AGCUGCUCUCUGGCU
modifications: 4-thio-2'-deoxythymidine at U24 (nt 9) [9 (strand 1, 4-thio-2'-deoxythymidine)]
Q: B1 was tested. Which IC50 [5] did it give?
A: The IC50 was 25 nM.

Q: GCCAGAUUUGAGCCUGGGAGCUCUCUGGC (ssRNA, 2'-OMe uridine at U23 (nt 7) [7 (2'-OMe uridine, U23)]) [29-mer 2'-OMeU-23] was tested. Which IC50 [6] did it give?
A: Its IC50 is 50 nM.

B2: 18+15 duplex 4-thioT-23 (dsRNA)
RNA 1: AGCCAGATUUGAGCAGCU
RNA 2: AGCUGCUCUCUGGCU
modifications: 4-thio-2'-deoxythymidine at U23 (nt 8) [8 (strand 1, 4-thio-2'-deoxythymidine)]
Q: How did the IC50 [5] turn out when B2 was run?
A: Its IC50 is 32 nM.

B3: HIV-1 TAR RNA 59-mer (UUU bulge) (ssRNA)
RNA: GGGUCUCUCUGGUUAGACCAGAUUUGAGCCUGGGAGCUCUCUGGCUAACUAGGGAACCC
Q: Which Kd [7] does the source give for B3 here?
A: Its Kd is 12 nM.

B4: TAR C39 to G39 (ssRNA)
RNA: B3 RNA with C39G
Q: Which IC50 [8] does the source give for B4 here?
A: The IC50 was 1500 nM.

B5: TAR G26 to C26; C39 to G39 (ssRNA)
RNA: B3 RNA with G26C, C39G
Q: For B5, which IC50 [8] is on record?
A: Its IC50 is 2370 nM.

B6: TAR G26 to A26; C39 to U39 (ssRNA)
RNA: B3 RNA with G26A, C39U
Q: With B6 as the molecule, how does the IC50 [8] read?
A: The IC50 was 631 nM.

B7: TAR A22 to U22; U40 to A40 (ssRNA)
RNA: B3 RNA with A22U, U40A
Q: How did the IC50 [8] turn out when B7 was run?
A: Its IC50 is 220 nM.

B8: HIV-1 TAR RNA (UCU bulge) (ssRNA)
RNA: B3 RNA with U24C
modifications: [24]
Q: How did the Kd [9] turn out when B8 was run?
A: The Kd was 12 nM.

Q: For GCCAGAUUUGAGCCUGGGAGCUCUCUGGC (ssRNA, 2'-deoxyuridine at U23 (nt 7) [7 (2'-deoxyuridine, U23)]) [29-mer dU-23], which IC50 [6] is on record?
A: Its IC50 is 55 nM.
